Source: patent EP4699605A1, “USE OF NOVEL COMPOUND FOR TREATING INTRACTABLE DISEASES” (YJ Cerapeutics Inc., priority 2023, dated 2024)

How the values were obtained:
microglia = assay: Microglial activation in spinal cord of SNI model (OX-42 staining, p-p38MAPK Western blot); format: in vivo, Sprague-Dawley rats
Protocol: To be used as a peripheral nerve injury animal model, a sciatic nerve injury (SNI) model was prepared (FIG. 1C). Specifically, 200 to 220 g of male adult Sprague-Dawley rats were anesthetized by intraperitoneal injection of chloral hydrate (500 mg/kg), and then three terminal branches (tibial, common peroneal, and sural nerves) of the right sciatic nerve were approached, and the tibia nerve and the peroneal nerve were tightly ligated with 4-0 silk, and neurectomy was performed at a distal 3 mm position of the ligation site. At this time, a Sham group was a group that exposed only the sciatic nerve without damage.
To analyze the activation of microglia in the spinal cord, which were known to play an important role in the induction/persistence of neuropathic pain, 4 weeks after nerve injury in the SNI animal model, the spinal cord of 4 and 5 lumbar vertebrae was stained with OX-42 to confirm changes in cell shape and intensity. […] The supernatant was transferred to a new microcentrifuge, the protein concentration was measured using a BCA kit, and samples for Western blot were prepared by adding a 1X sample buffer and boiling for 5 minutes. […]

[1] = tested on: neutrophils and macrophages; assay: Introduction of neutrophils and macrophages into the bladder after SCI (immunofluorescence); format: in vivo, Sprague-Dawley rats
Text: When bladder dysfunction occurred due to spinal cord injury, cystitis, etc., a decrease in tight junction protein in the urothelium in contact with urine occurred, which increased the permeability of the bladder wall to introduce the harmful substances into the tissue, and caused the death of the urothelium serving as a barrier, and an increase in inflammatory response in the bladder. In order to determine what effect the compound YJ102 of the present disclosure had on these pathological processes, the expression of tight junction proteins ZO-1 and occludin was confirmed by Western blot analysis and immunofluorescence staining, and the introduction of neutrophils and macrophages into the bladder was confirmed by immunofluorescence staining. Specifically, the cut bladder tissue sections were frozen in liquid nitrogen, ground in a mortar and pestle to be completely lysed, and homogenized by adding Lysis Buffer [50 mM Tris-HCl (pH 7.4), 150 mM NaCl, 2 mM MgCl2, 0.1% NP40]. The homogenized tissue sections were transferred to a microcentrifuge tube, rock at 4°C for 20 minutes, and then centrifuged at 25,000 × g for 10 minutes. The supernatant was transferred to a new microcentrifuge, the protein concentrations were measured using a BCA kit, and then samples for Western blot were prepared by adding a 1X sample buffer and boiling for 5 minutes. […]

Raw 264.7 cell line = assay: Inflammatory factor mRNA in LPS-treated macrophage cell line (RT-PCR); format: cell-based; conditions: LPS treatment
Protocol: In order to determine whether YJ102 affected the production of proNGF as a ligand of p75, the expression of proNGF in the bladder was confirmed by RT-PCR, Western blot analysis, and immunofluorescence staining. In addition, for further verification, a macrophage cell line Raw 264.7 (Korea Cell Line Bank, Seoul, Korea) was stimulated with 1 µg/ml of LPS, and the effect of YJ102 on the production of proNGF was investigated. At this time, YJ102 was dissolved in DMSO and treated 30 minutes before LPS treatment.
(§1) To confirm the effect of YJ102 on the expression of inflammatory factors in the bladder after spinal cord injury, the expression of inflammatory cytokines and chemokines, COX-2, iNOS, IL-6, IL-1β, MIP-1α, MIP-1β, MIP-2α, and Gro-α in bladder tissue was confirmed by RT-PCR analysis and Western blot analysis using the primers in Table 2 above. In addition, even in the Raw 264.7 cell line, the expression was verified by RT-PCR analysis.

[2] = tested on: IMQ psoriasis animal model; assay: Epidermal layer thickness (H&E) in IMQ psoriasis animal model; format: in vivo, C57BL/6 mouse
Protocol: Psoriasis caused by excessive production of skin cells was a chronic skin disease associated with various factors, including autoimmune diseases, and its symptoms included red and thickened skin and abnormally occurring scaling. […] Specifically, the back region of a C57BL/6 mouse (male, 18 to 20 g, 8 weeks) (Daehan Biolink, Eumseong, Korea) was shaved to remove hair, and then applied with IMQ cream (83 mg/day) (5%) for consecutive 5 days from Day 0 to Day 4 to induce psoriasis-like skin inflammation, and a normal control mouse (Sham) was applied with Vaseline cream (FIG. 16A).
On day 6, the skin tissue of the psoriasis mouse model was stained with Hematoxyline & Eosin, and the epidermal layer thickness was measured. Specifically, on Day 6, the skin of the mouse back was extracted, immersed in 4% paraformaldehyde for 24 hours to fix the tissue, and then paraffin blocks were made to prepare paraffin tissue sections with a thickness of 5 µm. In order to measure the thickness of the epidermal layer, paraffin tissue was stained with Hematoxylene & Eosin (Abcam) according to the manufacturer's protocol, and five sections of the epidermal layer from each mouse were photographed at 200x magnification using an optical microscope. The epidermal layer thickness was measured in tissues from a total of five mice (a total of 25 sections) and the average value was calculated.

inflammatory factors = assay: Inflammatory cytokine and chemokine expression in bladder after SCI (RT-PCR, Western blot); format: in vivo, Sprague-Dawley rats; conditions: bladder tissue after spinal cord injury
Text: as §1

TRPM7 = assay: Signaling pathway analysis in SNI model (Western blot): TRPM7 expression; format: in vivo, Sprague-Dawley rats; conditions: 4 weeks after nerve injury
Protocol: To determine through which signaling pathway YJ102 inhibited a neuroinflammatory response, there was analyzed increased expression and activation of histone demethylase JMJD3 and expression changes of factors associated with JAK/STAT3 pathway, mTOR pathway, and TRPM7-mediated pathway, which were known as important regulatory mechanisms and epigenetic regulators mediating the neuroinflammatory response, in the tissues of the SNI animal model 4 weeks after nerve injury.

Question: `CCc1ccc(N(C(=O)COC)c2nc3cc(Cl)ccc3o2)cc1` [YJ102] was tested. Which “microglia activation changes (OX-42 intensity, activated morphology)” value (microglia; 4 weeks after nerve injury, L4-L5 spinal cord, vs Vehicle) did it give?
Answer: significantly reduced

Question: What about the “amount of p-p38MAPK” value (microglia; spinal cord, Western blot) of the same compound?
Answer: significantly reduced

Question: And the “introduction of MPO-positive neutrophils into the bladder” value ([1]; after spinal cord injury (day 1))?
Answer: significantly inhibited

Question: And the “introduction of ED-1-positive macrophages into the bladder” value ([1]; after spinal cord injury (day 7))?
Answer: significantly inhibited

Question: And the “mRNA levels of IL-1β, TNF-α, IL-6, iNOS, and COX-2” value (Raw 264.7 cell line)?
Answer: significantly reduced

Question: And the “reduction of epidermal layer thickness compared to the Vehicle group” value ([2]; Day 6)?
Answer: approximately 35%

Question: What about the epidermal layer thickness ([2]; Day 6, 5 mg/kg intraperitoneally, Sham 36.6 ± 2.3, Vehicle 141.3 ± 7.5) of the same compound?
Answer: 89.8 ± 6.8 µm

Question: What about the “number of cells introduced into the dermal layer” value ([2]; Day 6, skin tissue H&E) of the same compound?
Answer: decreased to the Sham level

Question: What about the “expression of COX-2, iNOS, IL-6, IL-1β, MIP-1α, MIP-1β, MIP-2α, and Gro-α” value (inflammatory factors) of the same compound?
Answer: significantly reduced

Question: And the “expression of TRPM7” value (TRPM7)?
Answer: inhibited
